According to BindingDB's records for PubMed 3011801 (University of Oulu, 1986):

These compounds were tested against T1, Prolyl 4-hydroxylase subunit alpha-1 (Gallus gallus, UniProt P16924) (assay: Inhibition Assay).
T1 sequence (P16924 whole entry): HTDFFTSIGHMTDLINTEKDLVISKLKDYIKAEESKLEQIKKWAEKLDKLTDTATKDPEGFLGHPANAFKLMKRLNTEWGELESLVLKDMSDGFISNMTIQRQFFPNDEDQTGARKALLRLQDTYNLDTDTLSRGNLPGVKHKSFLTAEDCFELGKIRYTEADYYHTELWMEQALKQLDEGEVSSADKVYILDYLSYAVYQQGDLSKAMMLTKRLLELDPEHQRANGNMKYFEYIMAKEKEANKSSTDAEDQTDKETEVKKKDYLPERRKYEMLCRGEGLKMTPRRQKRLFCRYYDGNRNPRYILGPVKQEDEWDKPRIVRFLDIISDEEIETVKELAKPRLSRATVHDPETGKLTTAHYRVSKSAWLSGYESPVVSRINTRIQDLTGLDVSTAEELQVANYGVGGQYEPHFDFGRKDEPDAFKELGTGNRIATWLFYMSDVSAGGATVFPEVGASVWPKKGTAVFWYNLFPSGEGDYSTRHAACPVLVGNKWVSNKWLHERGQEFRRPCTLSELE
Source text: Inhibition assay using procollagen-prolin, 2-oxoglutarate 4-dioxygenase.

Row | SMILES | Ki [µM]
1 | Oc1cccc(O)c1 | 10200
2 | Oc1ccc(O)cc1 | 14000
3 | O=C(O)c1cccc(O)c1 | > 20000
4 | Oc1ccccc1O [1,2-Dihydroxybenzene, XI] | 25
5 | O=C(O)c1ccc(O)cc1 [4-Hydroxybenzoate, III] | 3200
6 | O=C1OC(C(O)CO)C(O)C1O (stereo unspecified) [5-(1,2-Dihydroxy-ethyl)-3,4-dihydroxy-dihydro-furan-2-one] | > 20000
7 | O=C(O)[C@H](O)c1ccccc1 [(+)-Mandelate, XXI] | > 20000
8 | O=C(O)c1cc(O)c(O)c(O)c1 [Gallic Acid, F] | 30
9 | O=C(O)Cc1ccccc1 [Phenylacetate, XIX] | > 20000
10 | O=C(O)c1ccccc1O [salicylic acid] | 2300

The next lines start with the values.

Row | Ki [µM] | SMILES
11 | 30 | Oc1cccc(O)c1O
12 | 70 | O=C(O)c1cccc(O)c1O [2,3-Dihydroxybenzoate, IV]
13 | 1400 | O=C(O)c1cc(O)ccc1O [2,5-Dihydroxybenzoate, VI]
14 | 1100 | O=C(O)c1c(O)cccc1O [2,6-Dihydroxybenzoate, VII]
15 | 18 | O=C(O)/C=C/c1ccc(O)c(O)c1 [3,4-Dihydroxycinnamate, XVII]
16 | 9 | O=C(O)C(O)c1ccc(O)c(O)c1 (stereo unspecified) [3,4-Dihydroxymandelate, XVI]
17 | 9000 | O=C(O)c1cc(O)cc(O)c1 [3,5-dihydroxybenzoic acid]
18 | 13 | O=C(O)CCc1ccc(O)c(O)c1 [3-(3,4-dihydroxyphenyl)propanoic acid]
19 | 5 | O=C(O)c1ccc(O)c(O)c1 [Protocatechuic acid (M1)]
20 | 9 | O=C(O)Cc1ccc(O)c(O)c1 [SMR000326727]
21 | 530 | O=C(O)c1ccc(O)cc1O [beta-Resorcylic acid]
